Experiments:
Pyrenophora teres = assay: Activity against net blotch of barley caused by Pyrenophora teres, 1 day protective application (comparative test); assay type: in vivo; settings: potted barley seedlings, sprayed 24 h before inoculation; visual % infection of entire leaf area after 6 days; concentration not given; untreated 90%
Method: The active compounds were prepared as a stock solution comprising 25 mg of active compound which was made up to 10 ml using a mixture of acetone and/or DMSO and the emulsifier Uniperol® EL (wetting agent having emulsifying and dispersing action based on ethoxylated alkylphenols) in a volume ratio of solvent/emulsifier of 99/1. The mixture was then made up to 100 ml with water. This stock solution was diluted with the solvent/emulsifier/water mixture described to the concentration of active compound stated below.
Comparative test—Activity against net blotch of barley caused by Pyrenophora teres, 1 day protective application
Leaves of potted barley seedlings were sprayed to runoff point with an aqueous suspension having the concentration of active compound stated below. 24 hours after the spray coating had dried on, the test plants were inoculated with an aqueous spore suspension of Pyrenophora [syn. Drechslera] teres, the net blotch pathogen. The test plants were then placed in a greenhouse at temperatures between 20 and 24° C. and 95 to 100% relative atmospheric humidity. After 6 days, the extent of the development of the disease was determined visually in % infection of the entire leaf area.

Compound | Infection in % (Pyrenophora teres) [%] | melting point [°C]
C=CCCCCc1c(C)nc2cc(C)nn2c1N [I-1] | 40 | 178 to 179
CCCCCCc1c(C)nc2cc(C)nn2c1N [compound 30, reference compound] | 90 | 

From US20080188493A1 (priority 2005, published 2008)
